# Source: patent US20240199587A1, “HETEROCYCLIC COMPOUNDS” (Hoffmann-La Roche Inc., priority 2021, published 2024)
# Target: T1, MAGL (Homo sapiens, UniProt Q99685)
# T1 sequence (Q99685 1-303): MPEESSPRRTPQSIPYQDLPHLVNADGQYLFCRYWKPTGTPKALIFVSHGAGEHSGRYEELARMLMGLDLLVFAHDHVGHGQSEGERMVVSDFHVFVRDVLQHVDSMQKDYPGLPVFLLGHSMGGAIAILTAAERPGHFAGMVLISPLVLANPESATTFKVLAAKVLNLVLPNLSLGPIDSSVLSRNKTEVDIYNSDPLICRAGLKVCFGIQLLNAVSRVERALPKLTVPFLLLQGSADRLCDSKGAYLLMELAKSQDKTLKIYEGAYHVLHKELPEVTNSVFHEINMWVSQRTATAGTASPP
# Experiment: 2-AG assay (MAGL inhibitory activity, hydrolysis of 2-arachidonoylglycerol to arachidonic acid followed by mass spectrometry)
# Format: biochemical
# Details: 8 μM 2-arachidonoylglycerol, 15 min pre-incubation, 30 min incubation at RT, RapidFire MS readout
# Excerpt: Compounds of formula (I) were profiled for MAGL inhibitory activity by determining the enzymatic activity by following the hydrolysis of the natural substrate 2-arachidonoylglycerol (2-AG) resulting in arachidonic acid, which can be followed by mass spectrometry. This assay is hereinafter abbreviated “2-AG assay”.
# Compounds of formula (I) were profiled for MAGL inhibitory activity by determining the enzymatic activity by following the hydrolysis of the natural substrate 2-arachidonoylglycerol (2-AG) resulting in arachidonic acid, which can be followed by mass spectrometry. This assay is hereinafter abbreviated “2-AG assay”. The 2-AG assay was carried out in 384 well polypropylene assay plates. […] Compound dilutions were added to MAGL protein in assay buffer (50 mM TRIS, 1 mM EDTA, 0.01% (v/v) Tween-20, 2.5% (v/v) DMSO). After shaking, the plate was incubated for 15 min at RT. To start the reaction, 2-arachidonoylglycerol in assay buffer was added. The final concentrations in the assay was […] for MAGL protein and 8 μM 2-arachidonoylglyerol. After shaking and 30 min incubation at RT, the reaction was quenched by the addition of two assay volumes of acetonitrile containing 4 μM of d8-arachidonic acid. The amount of arachidonic acid formed was traced by an online SPE system (Agilent Rapidfire) coupled to a triple quadrupole mass spectrometer. A C18 SPE cartridge (Agilent G9205A) was used in an acetonitrile/water liquid setup. The mass spectrometer was operated in negative electrospray mode following the mass transitions 303.1→259.1 for arachidonic acid and 311.1→267.0 for d8-arachidonic acid. The activity of the compounds was calculated based on the ratio of intensities [arachidonic acid/d8-arachidonic acid].
row,IC50 [nM],Structure (SMILES)
1,2.5,"O=C(N1C[C@H]2CC(Oc3ccc(C(F)(F)F)cc3F)C[C@H]2C1)N1CC2(CC(n3cnc(C4CC4)n3)C2)C1 (mixture of isomers) [Example 89, [6-(3-cyclopropyl-1,2,4-triazol-1-yl)-2-azaspiro[3.3]heptan-2-yl]-[rac-(3aS,6aR)-5-[2-fluoro-4-(trifluoromethyl)phenoxy]-3,3a,4,5,6,6a-hexahydro-1H-cyclopenta[c]pyrrol-2-yl]methanone]"
2,6.3,"O=C(N1C[C@H]2CC(Oc3ccc(F)cc3Cl)C[C@H]2C1)N1CC2(CC(n3cnc(C4CC4)c3)C2)C1 (mixture of isomers) [Example 91, [6-(4-cyclopropylimidazol-1-yl)-2-azaspiro[3.3]heptan-2-yl]-[rac-(3aR,6aS)-5-(2-chloro-4-fluoro-phenoxy)-3,3a,4,5,6,6a-hexahydro-1H-cyclopenta[c]pyrrol-2-yl]methanone]"
3,1,"O=C(N1C[C@H]2CC(Oc3ccc(F)cc3Cl)C[C@H]2C1)N1CC2(CC(n3cnc(C4CC4)n3)C2)C1 (mixture of isomers) [Example 93, [6-(3-cyclopropyl-1,2,4-triazol-1-yl)-2-azaspiro[3.3]heptan-2-yl]-[rac-(3aR,6aS)-5-(2-chloro-4-fluoro-phenoxy)-3,3a,4,5,6,6a-hexahydro-1H-cyclopenta[c]pyrrol-2-yl]methanone]"
4,1.5,"O=C(N1C[C@H]2CC(Oc3ccc(F)c(Cl)c3)C[C@H]2C1)N1CC2(CC(n3cnc(C4CC4)n3)C2)C1 (mixture of isomers) [Example 126, [6-(3-cyclopropyl-1,2,4-triazol-1-yl)-2-azaspiro[3.3]heptan-2-yl]-[rac-(3aS,6aR)-5-(4-fluoro-3-chloro-phenoxy)-3,3a,4,5,6,6a-hexahydro-1H-cyclopenta[c]pyrrol-2-yl]methanone]"
5,156,"O=C(N1C[C@H]2CC(Oc3ccc(F)cc3Cl)C[C@H]2C1)N1CC2(CC(n3cnnc3C3CC3)C2)C1 (mixture of isomers) [Example 178, [6-(3-cyclopropyl-1,2,4-triazol-4-yl)-2-azaspiro[3.3]heptan-2-yl]−[rac-(3aS,6aR)-5-(2-chloro-4-fluoro-phenoxy)-3,3a,4,5,6,6a-hexahydro-1H-cyclopenta[c]pyrrol-2-yl]methanone]"
6,1.6,"O=C(N1CC(c2ccc(N3CCC(O)(C(F)(F)F)C3)nc2)C1)N1CC2(CC(n3cnc(C4CC4)n3)C2)C1 (single isomer, unassigned) [Example 214]"
7,76.2,"NC(=O)C(c1ccc(F)cc1)C1CCN(C(=O)N2CC3(CC(n4cnc(C5CC5)n4)C3)C2)CC1 (single isomer, unassigned) [Example 291]"
8,97.3,"NC(=O)C(c1ccc(F)cc1)C1CCN(C(=O)N2CC3(CC(n4cnc(C5CC5)n4)C3)C2)CC1 (single isomer, unassigned) [Example 301]"
9,1.63,"N=S(=O)(c1cccc(CC2CC3(C2)CN(C(=O)N2CC4(CC(n5cnc(C6(O)CC6)n5)C4)C2)C3)c1)C(F)(F)F (single isomer, unassigned) [Example 406, [6-[3-(1-hydroxycyclopropyl)-1,2,4-triazol-1-yl]-2-azaspiro[3.3]heptan-2-yl]-[6-[[3-(trifluoromethyl-sulfonimidoyl)phenyl]methyl]-2-azaspiro[3.3]heptan-2-yl]methanone]"
10,0.25,"N=S(=O)(c1cccc(CC2CC3(C2)CN(C(=O)N2CC4(CC(n5cnc(C6(O)CC6)n5)C4)C2)C3)c1)C(F)(F)F (single isomer, unassigned) [Example 407, [6-[3-(1-hydroxycyclopropyl)-1,2,4-triazol-1-yl]-2-azaspiro[3.3]heptan-2-yl]-[6-[[3-(trifluoromethyl-sulfonimidoyl)phenyl]methyl]-2-azaspiro[3.3]heptan-2-yl]methanone]"
11,1.88,"CS(=N)(=O)c1cccc(CC2CC3(C2)CN(C(=O)N2CC4(CC(n5cnc(C6CC6)n5)C4)C2)C3)c1 (single isomer, unassigned) [Example 440, [6-(3-cyclopropyl-1,2,4-triazol-1-yl)-2-azaspiro[3.3]heptan-2-yl]-[6-[[3-(methylsulfonimidoyl)phenyl]methyl]-2-azaspiro[3.3]heptan-2-yl]methanone]"
12,1.97,"CS(=N)(=O)c1cccc(CC2CC3(C2)CN(C(=O)N2CC4(CC(n5cnc(C6CC6)n5)C4)C2)C3)c1 (single isomer, unassigned) [Example 441, [6-(3-cyclopropyl-1,2,4-triazol-1-yl)-2-azaspiro[3.3]heptan-2-yl]-[6-[[3-(methylsulfonimidoyl)phenyl]methyl]-2-azaspiro[3.3]heptan-2-yl]methanone]"
13,2.22,"CS(=N)(=O)c1ccc(CC2CC3(C2)CN(C(=O)N2CC4(CC(n5cnc(C6CC6)n5)C4)C2)C3)cc1 (single isomer, unassigned) [Example 442, [6-(3-cyclopropyl-1,2,4-triazol-1-yl)-2-azaspiro[3.3]heptan-2-yl]-[6-[[4-(methylsulfonimidoyl)phenyl]methyl]-2-azaspiro[3.3]heptan-2-yl]methanone]"
14,4.31,"CS(=N)(=O)c1ccc(CC2CC3(C2)CN(C(=O)N2CC4(CC(n5cnc(C6CC6)n5)C4)C2)C3)cc1 (single isomer, unassigned) [Example 443, [6-(3-cyclopropyl-1,2,4-triazol-1-yl)-2-azaspiro[3.3]heptan-2-yl]-[6-[[4-(methylsulfonimidoyl)phenyl]methyl]-2-azaspiro[3.3]heptan-2-yl]methanone]"
15,1.28,"NC(=O)[C@H]1CC(F)(F)CCN1c1ccc(C2CN(C(=O)N3CC4(CC(n5cnc(C6CC6)n5)C4)C3)C2)cc1 (single isomer, unassigned) [Example 493]"
16,2.34,"NC(=O)[C@H]1CC(F)(F)CCN1c1ccc(C2CN(C(=O)N3CC4(CC(n5cnc(C6CC6)n5)C4)C3)C2)cc1 (single isomer, unassigned) [Example 494]"
17,24.7,"O=C(N1CC2(CC(n3cnc(C4(O)CC4)n3)C2)C1)N1CC2(CC[C@H](Cc3ncc(F)cc3F)C2)C1 (stereo in doubt) [Example 351, [6-[3-(1-hydroxycyclopropyl)-1,2,4-triazol-1-yl]-2-azaspiro[3.3]heptan-2-yl]-[(6S)-6-[(3,5-difluoro-2-pyridyl)methyl]-2-azaspiro[3.4]octan-2-yl]methanone]"
18,4.36,"O=C(N1CC2(CC(n3cnc(C4(O)CC4)n3)C2)C1)N1CC2(CC[C@@H](Cc3ncc(F)cc3F)C2)C1 (stereo in doubt) [Example 352, [6-[3-(1-hydroxycyclopropyl)-1,2,4-triazol-1-yl]-2-azaspiro[3.3]heptan-2-yl]-[(6R)-6-[(3,5-difluoro-2-pyridyl)methyl]-2-azaspiro[3.4]octan-2-yl]methanone]"
19,0.49,"O=C(N1CC(c2ccc(N3CCC(C(F)(F)F)C3)nc2)C1)N1CC2(CC(n3cnc(C4CC4)n3)C2)C1 (stereo in doubt) [Example 480, [6-(3-cyclopropyl-1,2,4-triazol-1-yl)-2-azaspiro[3.3]heptan-2-yl]-[3-[6-[(3S)-3-(trifluoromethyl)pyrrolidin-1-yl]-3-pyridyl]azetidin-1-yl]methanone]"
20,0.1,"O=C(N1CC(c2ccc(C3(C(F)(F)F)CC3)cc2)C1)N1CC2(CC(n3cnc(C4CC4)n3)C2)C1 [Example 1, (6-(3-cyclopropyl-1H-1,2,4-triazol-1-yl)-2-azaspiro[3.3]heptan-2-yl)(3-(4-(1-(trifluoromethyl)cyclopropyl)phenyl)azetidin-1-yl)methanone]"
21,25.7,"O=C(N1CC(c2nc(CC3(C(F)(F)F)CC3)no2)C1)N1CC2(CC(n3cnc(C4CC4)n3)C2)C1 [Example 2, [6-(3-cyclopropyl-1,2,4-triazol-1-yl)-2-azaspiro[3.3]heptan-2-yl]-[3-[3-[[1-(trifluoromethyl)cyclo-propyl]methyl]-1,2,4-oxadiazol-5-yl]azetidin-1-yl]methanone]"
22,5.1,"CC(C)(C)c1nc(-c2ccc(C(=O)N3CC4(CC(n5cnc(C6CC6)n5)C4)C3)cc2)no1 [Example 3, [4-(5-tert-butyl-1,2,4-oxadiazol-3-yl)phenyl]−[6-(3-cyclopropyl-1,2,4-triazol-1-yl)-2-azaspiro[3.3]heptan-2-yl]methanone]"
23,11.4,"CC(C)(C)c1nc(-c2ccc(C(=O)N3CC4(CC(n5cnc(C(F)(F)F)n5)C4)C3)cc2)no1 [Example 4, (4-(5-(tert-butyl)-1,2,4-oxadiazol-3-yl)phenyl)(6-(3-(trifluoromethyl)-1H-1,2,4-triazol-1-yl)-2-azaspiro[3.3]heptan-2-yl)methanone]"
24,85.9,"CC(C)(C)c1nc(-c2ccc(C(=O)N3CC4(CC(n5ccc(C(F)(F)F)n5)C4)C3)cc2)no1 [Example 5, [4-(5-tert-butyl-1,2,4-oxadiazol-3-yl)phenyl]-[6-[3-(trifluoromethyl)pyrazol-1-yl]-2-azaspiro[3.3]heptan-2-yl]methanone]"
